Measurements published in patent US20260207659A1, “COMPOSITIONS FOR USE IN THE PROPHYLACTIC TREATMENT OF HYPOCALCEMIA IN A RUMINANT ANIMAL” (VILOFOSS A/S, priority 2022, published 2026).
Several values for one entry are separate records, joined by “and”; a condition that tells them apart may be missing. Identical values can stand only once. Like-named read-outs stand apart in the source and are kept apart here.

Test: In vitro phosphorus binding efficacy in rumen fluid, three phases mimicking the digestive tract of a ruminant (Thilsing et al.)
Set-up: species or system ruminant animal; Phosphate binding in comparison to control, % / P binding in comparison to control, %: concentration or dose not given beside the values
[1] = Table 1, from free phosphate, relative to Zeolite 4A
[2] = Table 1, from free phosphate, relative to untreated control
[3] = Table 2, phase 3 binding capacity, relative to Zeolite 4A
[4] = Table 2, phase 3 binding capacity, relative to control
[5] = phase 3 (after HCl and HCO3-, mimicking small intestine)
[6] = statement in words on Tables 1 and 2
[7] = supernatant of rumen fluid after addition of HCl and HCO3-, 0.06 g compound/8 ml rumen fluid

Structure (SMILES) | Phosphate binding in comparison to 4A, % [1] [%] | Phosphate binding in comparison to control, % [2] [%] | Phosphate binding in comparison to 4A, % [3] [%] | P binding in comparison to control, % [4] [%] | Phosphate Binding Capacity [5] | Phosphorus binding compared to other compounds, including Zeolite 4A alone [6] | Free Phosphate [7] [mmol] | Free Phosphate [mmol] | P binding in comparison to control, % [%] | Phosphate Binding Capacity | Phosphate binding in comparison to 4A, % | Phosphate binding in comparison to control, % [%] | Phosphorus binding compared to other compounds, including Zeolite 4A alone
[Cl][Al]([Cl])[Cl] [Aluminium chloride] | 45.6 | 64.3 | 94 | 96 | 88.9 mg Phosphate/gram of compound | superior | 7.0 |  |  |  |  |  | 
O=S(=O)([O-])[O-].[Fe+2] [Iron (II) sulphate] |  |  |  |  |  |  |  | 8.2 | 75 | 69.3 mg Phosphate/gram of compound | 36.5% and 56% | 58.3 | superior
O=C([O-])[O-].O=C([O-])[O-].O=C([O-])[O-].[La+3].[La+3] [Lanthanum carbonate, hydrated, reference compound] | 22.6 | 49.2 | 72 | 84 | 77.7 mg Phosphate/gram of compound | superior | 10.0 |  |  |  |  |  | 
[Cl][La]([Cl])[Cl] [Lanthanum chloride] | 51.1 | 67.9 | 62 | 79 | 72.8 mg Phosphate/gram of compound | superior | 6.3 |  |  |  |  |  | 
